From patent publication US20030232986A1, “Inhibitors of caspases” (Vertex Pharmaceuticals Incorporated, priority 1998, published 2003)
Where a SMILES comes first, the peptide text is derived from it. [ ]: non-standard residue; d: D form. The star is where a group is joined. Aze = O=C(O)[C@@H]1CCN1; Bz = O=C(c1ccccc1)*

Key:
[1] = target: T1, Caspase-1 (Homo sapiens, UniProt P29466); test: Caspase-1 enzyme inhibition (Ki); type: biochemical; settings: substrate Suc-YVAD-pNA 80 μM, 37° C., pH 7.5
T1 sequence (P29466 120-297 limits assumed): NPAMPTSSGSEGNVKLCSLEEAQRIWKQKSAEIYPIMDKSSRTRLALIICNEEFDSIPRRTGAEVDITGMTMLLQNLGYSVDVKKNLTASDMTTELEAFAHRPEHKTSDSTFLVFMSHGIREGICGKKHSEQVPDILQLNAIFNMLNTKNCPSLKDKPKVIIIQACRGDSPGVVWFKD
T1 sequence (P29466 317-404 limits assumed): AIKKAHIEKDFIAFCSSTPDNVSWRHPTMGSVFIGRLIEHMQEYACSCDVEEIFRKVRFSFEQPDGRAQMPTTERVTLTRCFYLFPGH
In short: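 Ki obtained by fitting rate versus inhibitor concentration to the Morrison tight-binding equation for competitive inhibitors, with pNA release read at 405 nm at 37 °C. Substrate Suc-YVAD-pNA (80 μM final) added after 15 min enzyme–inhibitor preincubation in Tris pH 7.5 buffer with DTT and CHAPS.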

[2] = system: Human whole blood, IL-1β production; test: Whole blood assay for IL-1β production; type: cell-based; settings: LPS-stimulated whole blood, IL-1β by ELISA
In short: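 LPS-stimulated (5.0 ng/ml final) human whole blood incubated with test compound in saline (or plasma/PBS-5% DMSO for hydrophobic compounds) at 30° C for 16-18 hr. Plasma IL-1β then measured by ELISA at 1:200 dilution, against no-LPS, no-inhibitor and vehicle controls.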

[3] = Single pass perfusion in rat: GI wall and liver metabolism, biliary excretion; type: in vitro ADME; settings: for f (g) Xf (h): GI wall metabolism f(g) x liver metabolism f(h)
Method: Single pass perfusion studies in rat were performed to assess gastrointestinal (GI) wall metabolism (f(g)), liver metabolism (f(h)), and biliary excretion. The method used has been described in Pang, C. S., J. Pharmacol. Exp. Therapeutics, 333, pp. 788-798 (1984).

[4] = system: Human Peripheral Blood Mononuclear Cells (PBMC), mature IL-1β; test: PBMC cell assay: IL-1β assay with human peripheral blood mononuclear cells; type: cell-based; settings: LPS-stimulated human PBMC, mature IL-1β in supernatant by ELISA
In short: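 Donor PBMC (suspension at 6×10^6 cells/ml) or adherent-enriched monocytes were stimulated with 5 ng/ml LPS (final) alongside 5–6 compound dilutions bracketing the ICE Ki, at 0.1% DMSO final, for 16–18 hr at 37° C, 5% CO2. Mature IL-1β in supernatants was measured by ELISA; IC50 was calculated relative to LPS-only controls.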

SMILES | Ki [1] [nM] | IC50 [2] [nM] | Biliary Excretion [3] | f (g) Xf (h) [3] | IC50 [4] [nM]
COc1cc(N)c(Cl)cc1C(=O)N[C@@H](C)C(=O)N1CCC[C@H]1C(=O)N[C@H](C=O)CC(=O)O [Example 7ac] | 10 to 1000 | 2500 to 7500 | C (Category “C” indicates >10%) | C (Category “C” indicates 0.5-0.75) | 
COC1CC(C(=O)NC(C=O)CC(=O)O)N(C(=O)C(C)NC(=O)c2ccc(N)c(Cl)c2)C1 (stereo not drawn) [Example 23i, 3-({1-[2-(4-amino-3-chloro-benzoylamino)-propionyl]-4-methoxy-pyrrolidine-2-carbonyl}-amino)-4-oxo-butyric acid] | 10 to 1000 | 2500 to 7500 |  |  | < 500
CC(C)[C@H](NC(=O)c1ccccc1)C(=O)N1CC[C@H]1C(=O)N[C@H](C=O)CC(=O)O [Example 24d] (Bz-Val-[Aze]-Asp-aldehyde) | 10 to 1000 | 2500 to 7500 |  |  | 500 to 1000
C[C@H](NC(=O)c1nccc2ccccc12)C(=O)N1CCCC[C@H]1C(=O)N[C@H](C=O)CC(=O)O [Example 25a] | < 10 | 2500 to 7500 |  |  | < 500
CC(C)[C@H](NC(=O)c1nccc2ccccc12)C(=O)N1CCCC[C@H]1C(=O)N[C@H](C=O)CC(=O)O [Example 25b] | < 10 | 2500 to 7500 |  |  | 500 to 1000
CC(C)(C)[C@H](NC(=O)c1nccc2ccccc12)C(=O)N1CCCC[C@H]1C(=O)N[C@H](C=O)CC(=O)O [Example 25c] | < 10 | 2500 to 7500 |  |  | 500 to 1000
C[C@H](NC(=O)c1ccc(N)c(Cl)c1)C(=O)N1CCCC[C@H]1C(=O)N[C@H](C=O)CC(=O)O [Example 25d] | < 10 | < 2500 | C (Category “C” indicates >10%) | C (Category “C” indicates 0.5-0.75) | 
CC(=O)Nc1ccc(C(=O)N[C@@H](C)C(=O)N2CCCC[C@H]2C(=O)N[C@H](C=O)CC(=O)O)cc1Cl [Example 25e] | < 10 | > 7500 | B (Category “B” indicates 5-10%) | C (Category “C” indicates 0.5-0.75) | 
COc1ccc(C(=O)N[C@H](C(=O)N2C3CCCCC3C[C@H]2C(=O)N[C@H](C=O)CC(=O)O)C(C)C)cc1 (stereo partly drawn) [Example 26d] | < 10 | < 2500 |  |  | 500 to 1000
CC(C)[C@H](NC(=O)c1nccc2ccccc12)C(=O)N1C[C@H](c2ccccc2)C[C@H]1C(=O)N[C@H](C=O)CC(=O)O [Example 26h] | < 10 | < 2500 |  |  | < 500
CC(C)[C@H](NC(=O)c1nccc2ccccc12)C(=O)N1CSC(C)(C)[C@H]1C(=O)N[C@H](C=O)CC(=O)O [Example 28c] | < 10 | > 7500 |  |  | 500 to 1000
C[C@H](NC(=O)c1nccc2ccccc12)C(=O)N[C@@H](C)C(=O)N[C@H](C=O)CC(=O)O [Example 29c] | < 10 | < 2500 |  |  | 500 to 1000
C[C@H](NC(=O)c1cccc2ccccc12)C(=O)N[C@@H](C)C(=O)N[C@H](C=O)CC(=O)O [Example 29d] | < 10 | < 2500 |  |  | 500 to 1000
Cc1cc(C(=O)N[C@H](C(=O)N[C@@H](C)C(=O)N[C@H](C=O)CC(=O)O)C(C)C)cc(C)c1O [Example 29e] | < 10 | < 2500 |  |  | < 500
Cc1cc(C(=O)N[C@@H](C)C(=O)N[C@@H](C)C(=O)N[C@H](C=O)CC(=O)O)cc(C)c1O [Example 29h] | < 10 | < 2500 |  |  | < 500
CC(C)[C@H](NC(=O)c1cc2ccccc2[nH]1)C(=O)N[C@@H](C)C(=O)N[C@H](C=O)CC(=O)O [Example 29i] | < 10 | < 2500 |  |  | < 500
C[C@H](NC(=O)[C@@H](NC(=O)c1cc2ccccc2[nH]1)C(C)(C)C)C(=O)N[C@H](C=O)CC(=O)O [Example 29j] | < 10 | < 2500 |  |  | 500 to 1000
C[C@H](NC(=O)[C@@H](NC(=O)c1cccc2ccccc12)C(C)(C)C)C(=O)N[C@H](C=O)CC(=O)O [Example 29k] | < 10 | < 2500 |  |  | < 500
CC(C)[C@H](NC(=O)c1ccc(O)cc1)C(=O)N[C@@H](C)C(=O)N[C@H](C=O)CC(=O)O [Example 29l] | 10 to 1000 | < 2500 |  |  | 500 to 1000
CC(=O)NC(C(=O)N1N=C(C(C)(C)C)SC1C(=O)NC(C=O)CC(=O)O)C(C)C (stereo not drawn) [Example 42, 3-{[3-(2-acetylamino-3-methyl-butyryl)-5-tert-butyl-2,3-dihydro-[1,3,4]thiadiazole-2-carbonyl]-amino)-4-oxo-butyric acid] | 10 to 1000 | 2500 to 7500 |  |  | > 2000
CC(C)C(NC(=O)c1ccc(N)c(Cl)c1)C(=O)N1CCCC1C(=O)NC(C=O)CC(=O)O (stereo not drawn) [Example 61, 3-((1-[2-(4-Amino-3-chloro-benzoylamino)-3-methyl-butyryl]-pyrrolidine-2-carbonyl}-amino)-4-oxo-butyric acid] | < 10 | < 2500 |  |  | 500 to 1000
CC(C)(C)[C@H](NC(=O)c1ccc(N)c(Cl)c1)C(=O)N1CCCC1C(=O)N[C@H](C=O)CC(=O)O (stereo partly drawn) [Example 73, 3-({-[2-(4-Amino-3-chloro-benzoylamino)-3,3-dimethyl-butyryl]-pyrrolidine-2-carbonyl}-amino)-4-oxo-butyric acid] | < 10 | < 2500 |  |  | 500 to 1000
C[C@H](NC(=O)c1ccccn1)C(=O)N1CCC[C@H]1C(=O)N[C@H](C=O)CC(=O)O [Example 122e] | 10 to 1000 | 2500 to 7500 |  |  | 1000 to 2000
C[C@H](NC(=O)c1cc(Cl)c(N)c(Cl)c1)C(=O)N1CCC[C@H]1C(=O)N[C@H](C=O)CC(=O)O [Example 122g, 3-({1-[2-(4-Amino-3,5-dichloro-benzoylamino)-propionyl]-pyrrolidine-2-carbonyl}-amino)-4-oxo-butyric acid] | < 10 | < 2500 |  |  | 500 to 1000
CC(C)Oc1cccc(C(=O)N[C@@H](C)C(=O)N2CCC[C@H]2C(=O)N[C@H](C=O)CC(=O)O)c1 [Example 122h, 3-({1-[2-(3-Isopropoxy-benzoylamino)-propionyl]-pyrrolidine-2-carbonyl}-amino)-4-oxo-butyric acid] | 10 to 1000 | < 2500 |  |  | 1000 to 2000
COc1ccc(C(=O)N[C@@H](C)C(=O)N2CCC[C@H]2C(=O)N[C@H](C=O)CC(=O)O)cc1OCc1ccccc1 [Example 122i, 3-({1-[2-(3-benzyloxy-4-methoxy-benzoylamino)-propionyl]-pyrrolidine-2-carbonyl}-amino)-4-oxo-butyric acid] | < 10 | < 2500 |  |  | 1000 to 2000
C[C@H](NC(=O)c1cnc2ccccc2n1)C(=O)N1CCC[C@H]1C(=O)N[C@H](C=O)CC(=O)O [Example 122j, 4-Oxo-3-[(1-{2-[(quinoxaline-2-carbonyl)-amino]-propionyl}-pyrrolidine-2-carbonyl) -amino]-butyric acid] | 10 to 1000 | 2500 to 7500 |  |  | > 2000
C[C@H](NC(=O)c1ccc(N)c(C(F)(F)F)c1)C(=O)N1CCC[C@H]1C(=O)N[C@H](C=O)CC(=O)O [Example 122l, 3-({1-[2-(4-Amino-3-trifluoromethyl-benzoylamino)-propionyl]-pyrrolidine-2-carbonyl}-amino)-4-oxo-butyric acid] | 10 to 1000 | < 2500 |  |  | 500 to 1000
